Patent publication US7473790B2 (Pfizer Inc., priority 2003, dated 2009)

target: T1, HCV polymerase (Hepatitis C virus genotype 1b, UniProt P26663); experiment: HCV polymerase primer/template-directed transcription assay (32P-GTP incorporation, filter binding); assay type: biochemical; conditions: @ 50 uM compound; given where IC50 was impractical to calculate; read-out: percent inhibition
T1 construct: 2.5 pmoles (0.15 μg) HCV polymerase protein in a final volume of 75 μL
Method in brief: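 Recombinant genotype 1b polymerase (30 nM) extended biotin-dG12 primer on poly(rC)300 template with 1 μM GTP plus α-32P-GTP, pH 7.2, 10 mM MgCl2, 30 min at 30° C, 1% DMSO final. Products captured on DE filters and counted. IC50 fitted from triplicate cpm, with a tight-binding correction applied below 200 nM.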

T1 sequence (P26663 2420-3010): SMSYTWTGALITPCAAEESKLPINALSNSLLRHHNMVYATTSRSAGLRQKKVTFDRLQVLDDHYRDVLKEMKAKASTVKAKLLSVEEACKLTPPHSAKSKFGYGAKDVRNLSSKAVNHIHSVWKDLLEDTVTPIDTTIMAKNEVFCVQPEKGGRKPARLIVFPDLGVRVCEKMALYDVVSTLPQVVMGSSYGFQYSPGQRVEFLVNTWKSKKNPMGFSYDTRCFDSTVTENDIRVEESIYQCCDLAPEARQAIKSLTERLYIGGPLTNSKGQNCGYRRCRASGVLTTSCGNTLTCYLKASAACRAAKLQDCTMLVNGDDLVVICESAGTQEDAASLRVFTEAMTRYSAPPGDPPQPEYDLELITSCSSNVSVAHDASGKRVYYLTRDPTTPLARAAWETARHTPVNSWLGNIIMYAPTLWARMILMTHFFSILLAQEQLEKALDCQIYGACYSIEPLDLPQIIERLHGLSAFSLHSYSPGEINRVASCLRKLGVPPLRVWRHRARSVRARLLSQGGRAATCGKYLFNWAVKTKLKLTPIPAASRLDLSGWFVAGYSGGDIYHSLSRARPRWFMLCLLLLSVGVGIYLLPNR

| Structure (SMILES) | inhibition at 50 µM [%] |
| --- | --- |
| Cc1cc(C)n2nc(CC3=C(O)CC(CCC(=O)NC4CCN(C(=O)OC(C)(C)C)CC4)(C4CCCC4)OC3=O)nc2n1 (centres unmarked) [B(109), 4-{3-[2-Cyclopentyl-5-(5,7-dimethyl-[1,2,4]triazolo[1,5-a]pyrimidin-2-ylmethyl)-4-hydroxy-6-oxo-3,6-dihydro-2H-pyran-2-yl]-propionylamino}-piperidine-1-carboxylic acid tert-butyl ester] | 23 |

same assay, conditions: compound concentration not given

| Structure (SMILES) | percent inhibition [%] |
| --- | --- |
| Cc1cc(C)n2nc(CC3=C(O)CC(CCc4ccc(O)c(C(C)C)c4)(C4CCCC4)OC3=O)nc2n1 (centres unmarked) [B(94), 6-Cyclopentyl-3-(5,7-dimethyl-[1,2,4]triazolo[1,5-a]pyrimidin-2-ylmethyl)-4-hydroxy-6-[2-(4-hydroxy-3-isopropyl-phenyl)-ethyl]-5,6-dihydro-pyran-2-one] | 1 |

same assay, conditions: recombinant HCV polymerase; 30 minutes at 30° C.; concentration giving 50% inhibition of polymerase-directed transcription; read-out: IC50

| Structure (SMILES) | IC50 [nM] |
| --- | --- |
| COc1ccc(CCC2(C3CCCC3)CC(=O)C(Cc3ccccn3)C(=O)O2)cc1Cl (centres unmarked) [B(81), 6-[2-(3-chloro-4-methoxyphenyl)ethyl]-6-cyclopentyl-3-(pyridin-2-ylmethyl)dihydro-2H-pyran-2,4(3H)-dione] | ~240 |
| COc1ccc(CCC2(C3CCCC3)CC(=O)C(Cc3ccncc3)C(=O)O2)cc1Cl (centres unmarked) [B(82), 6-[2-(3-chloro-4-methoxyphenyl)ethyl]-6-cyclopentyl-3-(pyridin-4-ylmethyl)dihydro-2H-pyran-2,4(3H)-dione] | 680 |
| COc1ccc(CCC2(C3CCCC3)CC(=O)C(Cc3cn4cccnc4n3)C(=O)O2)cc1Cl (centres unmarked) [B(83), 6-[2-(3-chloro-4-methoxyphenyl)ethyl]-6-cyclopentyl-3-(imidazo[1,2-a]pyrimidin-2-ylmethyl)dihydro-2H-pyran-2,4(3H)-dione] | 360 |
| COc1ccc(CCC2(C3CCCC3)CC(=O)C(Cc3nc4ccccc4n3C)C(=O)O2)cc1Cl (centres unmarked) [B(84), 6-[2-(3-chloro-4-methoxyphenyl)ethyl]-6-cyclopentyl-3-[(1-methyl-1H-benzimidazol-2-yl)methyl]dihydro-2H-pyran-2,4(3H)-dione] | 110 |
| COc1ccc(CCC2(C3CCCC3)CC(=O)C(Cc3ccc4ccccc4n3)C(=O)O2)cc1Cl (centres unmarked) [B(85), 6-[2-(3-chloro-4-methoxyphenyl)ethyl]-6-cyclopentyl-3-(quinolin-2-ylmethyl)dihydro-2H-pyran-2,4(3H)-dione] | 740 |
| COc1ccc(CCC2(C3CCCC3)CC(O)=C(C(=O)Cc3cc(C)no3)C(=O)O2)c(OC)c1 (centres unmarked) [B(86), 6-Cyclopentyl-6-[2-(2,4-dimethoxy-phenyl)-ethyl]-4-hydroxy-3-[2-(3-methyl-isoxazol-5-yl)-acetyl]-5,6-dihydro-pyran-2-one] | 22100 |
| COc1ccc(CCC2(C3CCCC3)CC(O)=C(C(=O)Cc3ccccn3)C(=O)O2)cc1Cl (centres unmarked) [B(87), 6-[2-(3-Chloro-4-methoxy-phenyl)-ethyl]-6-cyclopentyl-4-hydroxy-3-(2-pyridin-2-yl-acetyl)-5,6-dihydro-pyran-2-one] | 1800 |
| COc1ccc(CCC2(C3CCCC3)CC(O)=C(C(C)=O)C(=O)O2)cc1Cl (centres unmarked) [B(88), 3-Acetyl-6-[2-(3-chloro-4-methoxy-phenyl)-ethyl]-6-cyclopentyl-4-hydroxy-5,6-dihydro-pyran-2-one] | 5100 |
| Cc1csc2nc(CC3=C(O)CC(CCc4ccc(C(F)F)c(F)c4)(C4CCCC4)OC3=O)cc(=O)n12 (centres unmarked) [B(89), 7-[(6-Cyclopentyl-6-{2-[4-(difluoromethyl)-3-fluorophenyl]ethyl}-4-hydroxy-2-oxo-5,6-dihydro-2H-pyran-3-yl)methyl]-3-methyl-5H-[1,3]thiazolo[3,2-a]pyrimidin-5-one] | 185 |
| COc1cc(OC)c(CCC2(C3CCCC3)CC(O)=C(Cc3cn4cccnc4n3)C(=O)O2)cc1Cl (centres unmarked) [B(90), 6-[2-(5-chloro-2,4-dimethoxyphenyl)ethyl]-6-cyclopentyl-4-hydroxy-3-(imidazo[1,2-a]pyrimidin-2-ylmethyl)-5,6-dihydro-2H-pyran-2-one] | 6 |
| CCc1cc(CCC2(C3CCCC3)CC(=O)C(Cc3nc4nc(C)cc(C)n4n3)C(=O)O2)ccc1N(C)S(C)(=O)=O (centres unmarked) [B(91), 6N-[4-(2-{2-cyclopentyl-5-[(5,7-dimethyl[1,2,4]triazolo[1,5-a]pyrimidin-2-yl)methyl]-4,6-dioxotetrahydro-2H-pyran-2-yl}ethyl)-2-ethylphenyl]-N-methylmethanesulfonamide] | 10 |
| Cn1ccc2cc(CC3=C(O)CC(CCc4ccc(C(C)(C)C#N)c(F)c4)(C4CCCC4)OC3=O)ccc21 (centres unmarked) [B(92), 2-[4-(2-{2-cyclopentyl-4-hydroxy-5-[(1-methyl-1H-indol-5-yl)methyl]-6-oxo-3,6-dihydro-2H-pyran-2-yl}ethyl)-2-fluorophenyl]-2-methylpropanenitrile] | 8 |
| CC(C)(C#N)c1ccc(CCC2(C3CCCC3)CC(O)=C(Cc3cn[nH]c3)C(=O)O2)cc1F (centres unmarked) [B(93), 2-(4-{2-[2-cyclopentyl-4-hydroxy-6-oxo-5-(1H-pyrazol-4-ylmethyl)-3,6-dihydro-2H-pyran-2-yl]ethyl}-2-fluorophenyl)-2-methylpropanenitrile] | 90 |
| Cc1cc(C)n2nc(CC3=C(O)CC(CCc4ccc(O)c(Cl)c4)(C4CCCC4)OC3=O)nc2n1 (centres unmarked) [B(95), 6-[2-(3-Chloro-4-hydroxy-phenyl)-ethyl]-6-cyclopentyl-3-(5,7-dimethyl-[1,2,4]triazolo[1,5-a]pyrimidin-2-ylmethyl)-4-hydroxy-5,6-dihydro-pyran-2-one] | 13 |
| CCc1cc(CCC2(C3CCCC3)CC(O)=C(Cc3nc4nc(C)cc(C)n4n3)C(=O)O2)ccc1OC (centres unmarked) [B(96), 6-Cyclopentyl-3-(5,7-dimethyl-[1,2,4]triazolo[1,5-a]pyrimidin-2-ylmethyl)-6-[2-(3-ethyl-4-methoxy-phenyl)-ethyl]-4-hydroxy-5,6-dihydro-pyran-2-one] | 5 |
| CCc1cc(CCC2(C3CCCC3)CC(O)=C(Cc3nc4nc(C)cc(C)n4n3)C(=O)O2)cc(Cl)c1OC (centres unmarked) [B(97), 6-[2-(3-Chloro-5-ethyl-4-methoxy-phenyl)-ethyl]-6-cyclopentyl-3-(5,7-dimethyl-[1,2,4]triazolo[1,5-a]pyrimidin-2-ylmethyl)-4-hydroxy-5,6-dihydro-pyran-2-one] | 9 |
| CCc1ccc(OC)c(CCC2(C3CCCC3)CC(O)=C(Cc3nc4nc(C)cc(C)n4n3)C(=O)O2)c1 (centres unmarked) [B(98), 6-Cyclopentyl-3-(5,7-dimethyl-[1,2,4]triazolo[1,5-a]pyrimidin-2-ylmethyl)-6-[2-(5-ethyl-2-methoxy-phenyl)-ethyl]-4-hydroxy-5,6-dihydro-pyran-2-one] | 6 |
| CCOc1ccc(CCC2(C3CCCC3)CC(O)=C(Cc3nc4nc(C)cc(C)n4n3)C(=O)O2)cc1CC (centres unmarked) [B(99), 6-Cyclopentyl-3-(5,7-dimethyl-[1,2,4]triazolo[1,5-a]pyrimidin-2-ylmethyl)-6-[2-(4-ethoxy-3-ethyl-phenyl)-ethyl]-4-hydroxy-5,6-dihydro-pyran-2-one] | 350 |
| CCc1cc(CCC2(C3CCCC3)CC(O)=C(Cc3nc4nc(C)cc(C)n4n3)C(=O)O2)cc(Cl)c1O (centres unmarked) [B(100), 6-[2-(3-Chloro-5-ethyl-4-hydroxy-phenyl)-ethyl]-6-cyclopentyl-3-(5,7-dimethyl-[1,2,4]triazolo[1,5-a]pyrimidin-2-ylmethyl)-4-hydroxy-5,6-dihydro-pyran-2-one] | 3 |
| CCc1cc(CCC2(C3CCCC3)CC(=O)CC(=O)O2)cc(Cl)c1O (centres unmarked) [B(101), 6-[2-(3-Chloro-5-ethyl-4-hydroxy-phenyl)-ethyl]-6-cyclopentyl-dihydro-pyran-2,4-dione] | 610 |
| CCc1cc(CCC2(C3CCCC3)CC(O)=C(Cc3nc4nc(C)cc(C)n4n3)C(=O)O2)ccc1OC(C)C (centres unmarked) [B(102), 6-Cyclopentyl-3-(5,7-dimethyl-[1,2,4]triazolo[1,5-a]pyrimidin-2-ylmethyl)-6-[2-(3-ethyl-4-isopropoxy-phenyl)-ethyl]-4-hydroxy-5,6-dihydro-pyran-2-one] | 500 |
| COc1ccc(CCC2(C3CCCC3)CC(O)=C(Cc3nc4nc(C)cc(C)n4n3)C(=O)O2)c(F)c1 (centres unmarked) [B(103), 6-Cyclopentyl-3-(5,7-dimethyl-[1,2,4]triazolo[1,5-a]pyrimidin-2-ylmethyl)-6-[2-(2-fluoro-4-methoxy-phenyl)-ethyl]-4-hydroxy-5,6-dihydro-pyran-2-one] | 107 |
| CCc1cc(CCC2(C3CCCC3)CC(O)=C(Cc3nc4nc(C)cc(C)n4n3)C(=O)O2)ccc1OCCO (centres unmarked) [B(104), 6-Cyclopentyl-3-(5,7-dimethyl-[1,2,4]triazolo[1,5-a]pyrimidin-2-ylmethyl)-6-{2-[3-ethyl-4-(2-hydroxy-ethoxy)-phenyl]-ethyl}-4-hydroxy-5,6-dihydro-pyran-2-one] | 3 |
| Cc1cc(C)n2nc(CC3=C(O)CC(CCc4ccc(O)c(F)c4)(C4CCCC4)OC3=O)nc2n1 (centres unmarked) [B(105), 6-Cyclopentyl-3-(5,7-dimethyl-[1,2,4]triazolo[1,5-a]pyrimidin-2-ylmethyl)-6-[2-(3-fluoro-4-hydroxy-phenyl)-ethyl]-4-hydroxy-5,6-dihydro-pyran-2-one] | 46 |
| COc1ccc(CCC2(C3CCCC3)CC(O)=C(Cc3nc4nc(C)cc(C)n4n3)C(=O)O2)cc1C1CC1 (centres unmarked) [B(107), 6-Cyclopentyl-6-[2-(3-cyclopropyl-4-methoxy-phenyl)-ethyl]-3-(5,7-dimethyl-[1,2,4]triazolo[1,5-a]pyrimidin-2-ylmethyl)-4-hydroxy-5,6-dihydro-pyran-2-one] | 6 |
| CCc1cc(CCC2(C3CCCC3)CC(O)=C(Cc3nc[nH]c3C)C(=O)O2)ccc1O (centres unmarked) [B(110), 6-Cyclopentyl-6-[2-(3-ethyl-4-hydroxy-phenyl)-ethyl]-4-hydroxy-3-(5-methyl-1H-imidazol-4-ylmethyl)-5,6-dihydro-pyran-2-one] | 107 |
| CCc1nc(CC2=C(O)CC(CCc3ccc(O)c(CC)c3)(C3CCCC3)OC2=O)c(C)[nH]1 (centres unmarked) [B(111), 6-Cyclopentyl-6-[2-(3-ethyl-4-hydroxy-phenyl)-ethyl]-3-(2-ethyl-5-methyl-1H-imidazol-4-ylmethyl)-4-hydroxy-5,6-dihydro-pyran-2-one] | 321 |
